The text below walks through data of US20260042731A1, “(2,4-DICHLOROPHENOXY)ACETIC ACID ANALOGS” (CORTEVA AGRISCIENCE LLC, priority 2022, published 2026).

What all share (experiment): Greenhouse post-emergence mixture trials, percent visual control
What all share (type): in vivo

One assay concerns Corn (ZEAMX). The settings on record: Zea mays, post-emergence, 504 h.
For assay [1], the system named is Common Lambsquarters (CHEAL). The settings on record: Chenopodium album, post-emergence, 504 h.
The subject of another assay is Velvetleaf (ABUTH).
[2] abbreviates: Abutilon theophrasti, post-emergence, 504 h, read-out: % Control.

Consider `O=C(O)CNCP(=O)(O)O` [Glyphosate, N-(phosphonomethyl) glycine, reference compound], for which the plant injury at 375 g/ha with Corn (ZEAMX) (read-out: % Control) was 70%. Also, in assay [1] (read-out: % Control), the pest or weed control at 375 g/ha was 50%, the pest or weed control at 1120 g/ha amounted to 65% and the pest or weed control at 1680 g/ha amounted to 85%. Also, in the assay with Velvetleaf (ABUTH) (setting [2]), the pest or weed control at 375 g/ha worked out at 85%, the pest or weed control at 1120 g/ha is 100% and the pest or weed control at 1680 g/ha was 100%.

Turning to `CC(C)N(C)S(=O)(=O)NC(=O)c1cc(-n2c(=O)cc(C(F)(F)F)n(C)c2=O)c(F)cc1Cl` [Saflufenacil, reference compound], in the assay with Corn (ZEAMX) (Trial 1 Trt 9, B2 0 g ae/ha, Saflufenacil 50 g ai or ae/ha alone, ZEAMX, 21 DAA), the plant injury at 50 g/ha is 50%. Moreover, in the assay with Corn (ZEAMX) (Trial 1 Trt 13, B2 0 g ae/ha, Saflufenacil 75 g ai or ae/ha alone, ZEAMX, 21 DAA), the plant injury at 75 g/ha was found to be 45%. Besides, the pest or weed control at 50 g/ha came out at 95% in assay [1] (Trial 1, Trt 9, B2 0 g ae/ha, Saflufenacil 50 g ai or ae/ha alone, CHEAL, 21 DAA) and 100% in the assay with Velvetleaf (ABUTH) (Abutilon theophrasti, post-emergence, 504 h, Trial 1, Trt 9, B2 0 g ae/ha, Saflufenacil 50 g ai or ae/ha alone, ABUTH, 21 DAA). Besides, the pest or weed control at 75 g/ha amounted to 98% in assay [1] (Trial 1, Trt 13, B2 0 g ae/ha, Saflufenacil 75 g ai or ae/ha alone, CHEAL, 21 DAA) and 100% in the assay on Velvetleaf (ABUTH) (Abutilon theophrasti, post-emergence, 504 h, Trial 1, Trt 13, B2 0 g ae/ha, Saflufenacil 75 g ai or ae/ha alone, ABUTH, 21 DAA). In the assay with Velvetleaf (ABUTH) (Abutilon theophrasti, post-emergence, 504 h, Trial 1, Trt 5, B2 0 g ae/ha, Saflufenacil 25 g ai or ae/ha alone, ABUTH, 21 DAA), the pest or weed control at 25 g/ha was 100%.

Regarding `Cc1nn(-c2cc(NS(C)(=O)=O)c(Cl)cc2Cl)c(=O)n1C(F)F` [Sulfentrazone, N-[2,4-dichloro-5-[4-(difluoromethyl)-4,5-dihydro-3-methyl-5-oxo-1H-1,2,4-triazol-1-yl]phenyl]-methane-sulfonamide, reference compound], the plant injury at 420 g/ha in the assay with Corn (ZEAMX) (Trial 1 Trt 25, B2 0 g ae/ha, Sulfentrazone 420 g ai or ae/ha alone, ZEAMX, 21 DAA) was determined as 25%. The plant injury at 140 g/ha with Corn (ZEAMX) (ZEAMX, 21 DAA, Sulfentrazone 140 g ai or ae/ha alone (B2 rate 0), Trial Bridge 3) is 40%. Besides, the plant injury at 210 g/ha in the assay on Corn (ZEAMX) (ZEAMX, 21 DAA, Sulfentrazone 210 g ai or ae/ha alone (B2 rate 0), Trial Bridge 3) amounted to 40%. In addition, the pest or weed control at 140 g/ha in assay [1] (CHEAL, Trial Bridge 3, Sulfentrazone 140 g ai/ha alone (B2 rate 0), 21 DAA) was 99%; with Velvetleaf (ABUTH) (Abutilon theophrasti, post-emergence, 504 h, ABUTH, 21 DAA, Sulfentrazone 140 g ai/ha alone (compound rate 0 g ae/ha), Trial Bridge 3), 98%. For the same compound, the pest or weed control at 210 g/ha is 88% in assay [1] (CHEAL, Trial Bridge 3, Sulfentrazone 210 g ai/ha alone (B2 rate 0), 21 DAA); 100% in assay [1] (Trial 1, Trt 21, B2 0 g ae/ha, Sulfentrazone 210 g ai or ae/ha alone, CHEAL, 21 DAA); 100% in the assay on Velvetleaf (ABUTH) (Abutilon theophrasti, post-emergence, 504 h, ABUTH, 21 DAA, Sulfentrazone 210 g ai/ha alone (compound rate 0 g ae/ha), Trial Bridge 3). Also, the pest or weed control at 420 g/ha amounted to 100% in assay [1] (CHEAL, Trial Bridge 3, Sulfentrazone 420 g ai/ha alone (B2 rate 0), 21 DAA); 99% in assay [1] (Trial 1, Trt 25, B2 0 g ae/ha, Sulfentrazone 420 g ai or ae/ha alone, CHEAL, 21 DAA); 80% in the assay on Velvetleaf (ABUTH) (Abutilon theophrasti, post-emergence, 504 h, Trial 1, Trt 25, B2 0 g ae/ha, Sulfentrazone 420 g ai or ae/ha alone, ABUTH, 21 DAA). The “% Control” value in the assay on Velvetleaf (ABUTH) (ABUTH, 21 DAA, Sulfentrazone 210 g ai/ha alone (compound rate 0 g ae/ha), Trial Bridge 3) is on record as 100%. Further, the pest or weed control at 216 g/ha in the assay on Velvetleaf (ABUTH) (Abutilon theophrasti, post-emergence, 504 h, ABUTH, 21 DAA, Sulfentrazone 216 g ai/ha alone (compound rate 0 g ae/ha), Trial Bridge 3) worked out at 8%.
